Laboratory results: patent US6737383B1, “Herbicidal oxadiazolidines” (priority 1999, dated 2004)

Tests used:
blackgrass = assay: Test B pre/postemergence blackgrass; assay type: in vivo, Alopecurus myosuroides
Procedure, shortened: (§1)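 Test chemicals in a non-phytotoxic solvent mixture with surfactant were sprayed preemergence onto planted seeds and postemergence onto plants 2 to 18 cm tall (1- to 4-leaf stage). After twelve to sixteen days in a greenhouse, injury was visually rated against untreated controls from 0 (no effect) to 10 (complete control).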

cocklebur = assay: Test B pre/postemergence cocklebur; assay type: in vivo, Xanthium strumarium
Procedure, shortened: as §1

bedstraw = assay: Test B pre/postemergence bedstraw; assay type: in vivo, Galium aparine
Procedure, shortened: as §1

rape = assay: Test B pre/postemergence rape; assay type: in vivo, Brassica napus
Procedure, shortened: as §1

purple nutsedge = assay: Test B pre/postemergence purple nutsedge; assay type: in vivo, Cyperus rotundus
Procedure, shortened: as §1

corn = assay: Test B pre/postemergence corn; assay type: in vivo, Zea mays
Procedure, shortened: as §1

morningglory = assay: Test B pre/postemergence morningglory; assay type: in vivo, Ipomoea hederacea
Procedure, shortened: as §1

wild oat = assay: Test B pre/postemergence wild oat; assay type: in vivo, Avena fatua
Procedure, shortened: as §1

velvetleaf = assay: Test B pre/postemergence velvetleaf; assay type: in vivo, Abutilon theophrasti
Procedure, shortened: as §1

sugar beet = assay: Test B pre/postemergence sugar beet; assay type: in vivo, Beta vulgaris
Procedure, shortened: as §1

wheat = assay: Test B pre/postemergence wheat; assay type: in vivo, Triticum aestivum
Procedure, shortened: as §1

soybean = assay: Test B pre/postemergence soybean; assay type: in vivo, Glycine max
Procedure, shortened: as §1

crabgrass = assay: Test B pre/postemergence crabgrass; assay type: in vivo, Digitaria sanguinalis
Procedure, shortened: as §1

giant foxtail = assay: Test B pre/postemergence giant foxtail; assay type: in vivo, Setaria faberii
Procedure, shortened: as §1

pigweed = assay: Test B pre/postemergence pigweed; assay type: in vivo, Amaranthus retroflexus
Procedure, shortened: as §1

surinam grass = assay: Test B pre/postemergence surinam grass; assay type: in vivo, Brachiaria decumbens
Procedure, shortened: as §1

[1] = Postemergence, Rate 62 g/ha, scale 0 to 10, 0 is no effect, 10 is complete control
[2] = Postemergence, Rate 125 g/ha, scale of 0 to 10 where 0 is no effect and 10 is complete control
[3] = Postemergence, Rate 250 g/ha, scale of 0 to 10, 0 is no effect, 10 is complete control
[4] = Preemergence, Rate 62 g/ha, scale of 0 to 10 where 0 is no effect and 10 is complete control
[5] = Preemergence, Rate 125 g/ha, scale of 0 to 10 where 0 is no effect and 10 is complete control
[6] = Preemergence, Rate 250 g/ha, scale 0 to 10 (0 no effect, 10 complete control)
[7] = Preemergence, Rate 500 g/ha, scale of 0 to 10 where 0 is no effect and 10 is complete control
[8] = Rate 500 g/ha, Postemergence, scale 0 to 10, 0 is no effect, 10 is complete control

CC(C)N(C(=O)n1oc(=O)n(C(CCl)CCl)c1=O)c1ccc(F)cc1 [Compound 672]
Plant response rating, Blackgrass (blackgrass; [1]): 0 | Blackgrass plant response rating (blackgrass; [2]): 2 | Blackgrass plant response rating (blackgrass; [3]): 6 | Blackgrass plant response rating (blackgrass; [4]): 1 | Plant response rating, Blackgrass (blackgrass; [5]): 3 | Plant response rating, Blackgrass (blackgrass; [6]): 8 | Plant response rating, Blackgrass (blackgrass; [7]): 8 | Blackgrass plant response rating (blackgrass; [8]): 6 | Plant response rating, Cocklebur (cocklebur; [1]): 0 | Cocklebur plant response rating (cocklebur; [2]): 1 | Cocklebur plant response rating (cocklebur; [3]): 2 | Cocklebur plant response rating (cocklebur; [4]): 0 | Plant response rating, Cocklebur (cocklebur; [5]): 0 | Plant response rating, Cocklebur (cocklebur; [6]): 0 | Cocklebur plant response rating (cocklebur; [8]): 7 | Bedstraw plant response rating (bedstraw; [3]): 4 | Bedstraw plant response rating (bedstraw; [4]): 0 | Plant response rating, Bedstraw (bedstraw; [5]): 0 | Plant response rating, Bedstraw (bedstraw; [6]): 0 | Plant response rating, Bedstraw (bedstraw; [7]): 0 | Bedstraw plant response rating (bedstraw; [8]): 6 | Plant response rating, Rape (rape; [1]): 0 | Rape plant response rating (rape; [2]): 3 | Rape plant response rating (rape; [4]): 0 | Plant response rating, Rape (rape; [5]): 2 | Plant response rating, Rape (rape; [6]): 7 | Plant response rating, Rape (rape; [7]): 8 | Rape plant response rating (rape; [8]): 3 | Plant response rating, Nutsedge (purple nutsedge; [1]): 0 | Nutsedge plant response rating (purple nutsedge; [2]): 0 | Nutsedge plant response rating (purple nutsedge; [4]): 0 | Plant response rating, Nutsedge (purple nutsedge; [5]): 0 | Plant response rating, Nutsedge (purple nutsedge; [6]): 0 | Plant response rating, Nutsedge (purple nutsedge; [7]): 0 | Nutsedge plant response rating (purple nutsedge; [8]): 5 | Plant response rating, Corn (corn; [1]): 0 | Corn plant response rating (corn; [2]): 0 | Corn plant response rating (corn; [3]): 0 | Corn plant response rating (corn; [4]): 0 | Plant response rating, Corn (corn; [5]): 0 | Plant response rating, Corn (corn; [6]): 0 | Plant response rating, Corn (corn; [7]): 0 | Corn plant response rating (corn; [8]): 0 | Plant response rating, Morningglory (morningglory; [1]): 4 | Morningglory plant response rating (morningglory; [2]): 8 | Morningglory plant response rating (morningglory; [3]): 8 | Morningglory plant response rating (morningglory; [4]): 0 | Plant response rating, Morningglory (morningglory; [5]): 0 | Plant response rating, Morningglory (morningglory; [6]): 0 | Plant response rating, Morningglory (morningglory; [7]): 2 | Plant response rating, Wild oats (wild oat; [1]): 0 | Wild oats plant response rating (wild oat; [2]): 0 | Wild oats plant response rating (wild oat; [4]): 0 | Plant response rating, Wild oats (wild oat; [5]): 4 | Plant response rating, Wild oats (wild oat; [6]): 5 | Plant response rating, Wild oats (wild oat; [7]): 7 | Wild oats plant response rating (wild oat; [8]): 0 | Plant response rating, Velvetleaf (velvetleaf; [1]): 6 | Velvetleaf plant response rating (velvetleaf; [2]): 6 | Velvetleaf plant response rating (velvetleaf; [4]): 0 | Plant response rating, Velvetleaf (velvetleaf; [5]): 3 | Plant response rating, Velvetleaf (velvetleaf; [6]): 3 | Plant response rating, Velvetleaf (velvetleaf; [7]): 4 | Velvetleaf plant response rating (velvetleaf; [8]): 7 | Plant response rating, Sugarbeets (sugar beet; [1]): 0 | Sugarbeets plant response rating (sugar beet; [2]): 0 | Sugarbeets plant response rating (sugar beet; [4]): 3 | Plant response rating, Sugarbeets (sugar beet; [5]): 4 | Plant response rating, Sugarbeets (sugar beet; [6]): 7 | Plant response rating, Sugarbeets (sugar beet; [7]): 8 | Sugarbeets plant response rating (sugar beet; [8]): 3 | Plant response rating, Wheat (wheat; [1]): 0 | Wheat plant response rating (wheat; [2]): 0 | Wheat plant response rating (wheat; [4]): 0 | Plant response rating, Wheat (wheat; [5]): 0 | Plant response rating, Wheat (wheat; [6]): 0 | Plant response rating, Wheat (wheat; [7]): 0 | Wheat plant response rating (wheat; [8]): 0 | Plant response rating, Soybean (soybean; [1]): 2 | Soybean plant response rating (soybean; [2]): 2 | Soybean plant response rating (soybean; [4]): 0 | Plant response rating, Soybean (soybean; [5]): 0 | Plant response rating, Soybean (soybean; [6]): 0 | Plant response rating, Soybean (soybean; [7]): 0 | Soybean plant response rating (soybean; [8]): 5 | Plant response rating, Crabgrass (crabgrass; [1]): 5 | Crabgrass plant response rating (crabgrass; [2]): 6 | Crabgrass plant response rating (crabgrass; [3]): 7 | Crabgrass plant response rating (crabgrass; [4]): 8 | Plant response rating, Crabgrass (crabgrass; [5]): 10 | Plant response rating, Crabgrass (crabgrass; [6]): 10 | Plant response rating, Crabgrass (crabgrass; [7]): 10 | Crabgrass plant response rating (crabgrass; [8]): 9 | Plant response rating, Giant foxtail (giant foxtail; [1]): 3 | Giant foxtail plant response rating (giant foxtail; [2]): 5 | Giant foxtail plant response rating (giant foxtail; [3]): 8 | Giant foxtail plant response rating (giant foxtail; [4]): 9 | Plant response rating, Giant foxtail (giant foxtail; [5]): 10 | Plant response rating, Giant foxtail (giant foxtail; [6]): 10 | Plant response rating, Giant foxtail (giant foxtail; [7]): 10 | Giant foxtail plant response rating (giant foxtail; [8]): 9 | Plant response rating, Redroot pigweed (pigweed; [1]): 7 | Redroot pigweed plant response rating (pigweed; [4]): 0 | Plant response rating, Redroot pigweed (pigweed; [5]): 3 | Plant response rating, Redroot pigweed (pigweed; [6]): 7 | Plant response rating, Redroot pigweed (pigweed; [7]): 8 | Redroot pigweed plant response rating (pigweed; [8]): 8 | Plant response rating, B. signalgrass (surinam grass; [1]): 0 | Plant response rating, B. signalgrass (surinam grass; [2]): 3 | B. signalgrass plant response rating (surinam grass; [3]): 3 | B. signalgrass plant response rating (surinam grass; [4]): 2 | Plant response rating, B. signalgrass (surinam grass; [5]): 4 | Plant response rating, B. signalgrass (surinam grass; [6]): 6 | Plant response rating, B. signalgrass (surinam grass; [7]): 8 | B. signalgrass plant response rating (surinam grass; [8]): 4
